Measurements: patent US20250059264A1, “METHOD OF TREATING STROKE” (AlaMab Therapeutics, Inc., priority 2023, published 2025)

Assays:
[1] = tested on: mouse model of stroke induced by middle cerebral artery occlusion (MCAO); assay: Brain water content, time of treatment (Example 2); assay type: in vivo, ICR mice; conditions: 48 h after reperfusion
Description: (§1) The administration of 10 mg/kg butylphthalide and 50 mg/kg ALMB-0166 was started 30 minutes, 2 hours, or 6 hours after the MCAO procedure of the mice. Ninety-six (96) ICR mice received behavioral training after adaptive feeding period and before the operation to establish stroke models. The behavioral training included beam-walking and rotarod test. The experimental mice were then randomly divided into 8 groups according to the values of the body weight, with 12 mice in each test group as described in Table 1. The mice were fasted overnight before modeling and were anesthetized with isoflurane. Right middle cerebral artery occlusion (MCAO) was induced in mice using the intraluminal filament technique to mimic focal cerebral ischemic stroke. After 1 hr, reperfusion was allowed by removing the occlusion. Administration of each treatment was performed 0.5 hrs, 2 hrs, or 6 hrs after the infarction. The neurological function score was evaluated at 24 hrs and 48 hrs after reperfusion, as was assessed by beam-walking, grip strength, and rotarod tests. At 48 hrs after reperfusion, the whole brain tissue of all rats was harvested to assess the cerebral infarct area by TTC staining, as well as to measure brain volume and brain water content, two indicators of acute cerebral edema.

[2] = tested on: mouse model of stroke induced by middle cerebral artery occlusion (MCAO); assay: Brain volume, time of treatment (Example 2); assay type: in vivo, ICR mice; conditions: 48 h after reperfusion
Description: as §1

[3] = tested on: rat model of stroke induced by middle cerebral artery occlusion (MCAO); assay: Beam-walking test (Example 3); assay type: in vivo, SD rats; conditions: 10 mg/kg (table label) i.v. Bid from 30 min after infarction
Description: (§2) The administration of the respective treatments was started 30 minutes after the MCAO procedure of the rats.
(§3) Seventy-two (72) SD rats received behavioral training after adaptive feeding period and before the operation to establish stroke models. The behavioral training included beam-walking, grip and rotarod tests. The experimental rats were then randomly divided into 6 groups according to the body weight, with 12 rats in each test group as described in Table 15.
(§4) The rats were fasted overnight before modeling and were anesthetized with isoflurane. Right middle cerebral artery occlusion (MCAO) was induced in each rat using the intraluminal filament technique to mimic focal cerebral ischemic stroke. After 2 hrs, reperfusion was allowed by removing the occlusion.
(§5) Administration of each treatment was performed 0.5 h after the infarction. The rats were scored by the Longa method at 24-hours post-procedure. The neurological function was evaluated at 24-hr and 48-hr after reperfusion, and was assessed by beam-walking, grip strength, and rotarod tests. At 48 h after reperfusion, the whole brain tissue of all rats was harvested to assess the cerebral infarct area by TTC staining, as well as to measure brain volume and brain water content, two indicators of acute cerebral edema.

[4] = tested on: rat model of stroke induced by middle cerebral artery occlusion (MCAO); assay: Grip strength (Example 3); assay type: in vivo, SD rats; conditions: 10 mg/kg (table label) i.v. Bid from 30 min after infarction
Description: as §2, §3, §4, §5

[5] = tested on: rat model of stroke induced by middle cerebral artery occlusion (MCAO); assay: Rotarod test (Example 3); assay type: in vivo, SD rats; conditions: 10 mg/kg (table label) i.v. Bid from 30 min after infarction
Description: as §2, §3, §4, §5

[6] = tested on: rat model of stroke induced by middle cerebral artery occlusion (MCAO); assay: Cerebral infarct volume by TTC staining (Example 3); assay type: in vivo, SD rats; conditions: 10 mg/kg (table label) i.v. Bid from 30 min after infarction, 48 h after reperfusion
Description: as §2, §3, §4, §5

[7] = tested on: rat model of stroke induced by middle cerebral artery occlusion (MCAO); assay: Brain water content (Example 3); assay type: in vivo, SD rats; conditions: 10 mg/kg (table label) i.v. Bid from 30 min after infarction; 48 h after reperfusion
Description: as §2, §3, §4, §5

[8] = tested on: rat model of stroke induced by middle cerebral artery occlusion (MCAO); assay: Brain volume (Example 3); assay type: in vivo, SD rats; conditions: 10 mg/kg (table label) i.v. Bid from 30 min after infarction; 48 h after reperfusion
Description: as §2, §3, §4, §5

[9] = tested on: rat model of stroke induced by middle cerebral artery occlusion (MCAO); design: species or system SD rats; conditions: in vivo
Description: (§6) The first administration of the respective treatments was started 30 minutes (Day 1 of study) after the MCAO procedure of the rats. For the butylphthalide group, subsequent doses were administered every day after for 14 days. For the ALMB-0166 test groups, a second dose of the antibody was administered at Day 4 post-stroke (Day 4 of the study). Thirty-six (36) SD rats received behavioral training after adaptive feeding period and before the operation to establish stroke models. The behavioral training included beam-walking, grip and rotarod tests. The experimental rats were then randomly divided into 6 groups according to the body weight, with 6 rats in each test group as described in Table 15. The rats were fasted overnight before modeling and were anesthetized with isoflurane. […] The body weight of rats was recorded before the operation (Day 0 of study) and on Days 2, 4, 7, and 11 after the procedure. The rats were scored by the Longa method at Day 1 (24-hours) post-procedure. The neurological function was evaluated at Days 1, 2, 4, 7, and 14 after the procedure, and was assessed by beam-walking, grip strength, and rotarod tests. […] The total infarct volume was determined, and the infarct volume ratio was calculated by dividing the total infarct volume by the whole brain volume. […]

[10] = tested on: rat model of stroke induced by middle cerebral artery occlusion (MCAO); assay: Beam-walking test, dosing regimen (Example 4); assay type: in vivo, SD rats; conditions: 10 mg/kg (table label) i.v. Bid from 30 min after infarction
Description: (§7) The first administration of the respective treatments was started 30 minutes (Day 1 of study) after the MCAO procedure of the rats. For the butylphthalide group, subsequent doses were administered every day after for 14 days. For the ALMB-0166 test groups, a second dose of the antibody was administered at Day 4 post-stroke (Day 4 of the study). Thirty-six (36) SD rats received behavioral training after adaptive feeding period and before the operation to establish stroke models. The behavioral training included beam-walking, grip and rotarod tests. The experimental rats were then randomly divided into 6 groups according to the body weight, with 6 rats in each test group as described in Table 15. The rats were fasted overnight before modeling and were anesthetized with isoflurane. Right middle cerebral artery occlusion (MCAO) was induced in each rat using the intraluminal filament technique to mimic focal cerebral ischemic stroke. After 2 hrs, reperfusion was allowed by removing the occlusion. Administration of butylphthalide was performed 0.5 hrs after the infarction, and every day after the operation (14 days). Administration of ALMB-0166 and the vehicle treatment was performed at 0.5 hrs and at Day 4 after the operation. The body weight of rats was recorded before the operation (Day 0 of study) and on Days 2, 4, 7, and 11 after the procedure. The rats were scored by the Longa method at Day 1 (24-hours) post-procedure. The neurological function was evaluated at Days 1, 2, 4, 7, and 14 after the procedure, and was assessed by beam-walking, grip strength, and rotarod tests. At Day 14 after reperfusion, the whole brain tissue of all rats was harvested to assess the cerebral infarct area by TTC staining. The total infarct volume was determined, and the infarct volume ratio was calculated by dividing the total infarct volume by the whole brain volume. For calculating the infarct volume rate, the difference in infarct volume ratio between the model group and the corresponding administration group was divided by the infarct volume ratio of the model group.

[11] = tested on: rat model of stroke induced by middle cerebral artery occlusion (MCAO); assay: Grip strength, dosing regimen (Example 4); assay type: in vivo, SD rats; conditions: 10 mg/kg (table label) i.v. Bid from 30 min after infarction
Description: as §7

[12] = tested on: rat model of stroke induced by middle cerebral artery occlusion (MCAO); assay: Rotarod test, dosing regimen (Example 4); assay type: in vivo, SD rats; conditions: 10 mg/kg (table label) i.v. Bid from 30 min after infarction
Description: as §7

[13] = tested on: rat model of stroke induced by middle cerebral artery occlusion (MCAO); assay: Cerebral infarct volume by TTC staining, dosing regimen (Example 4); assay type: in vivo, SD rats; conditions: 10 mg/kg (table label) i.v. Bid from 30 min after infarction, 14-days post-operation
Description: as §6

[14] = 10 mg/kg i.v. once 0.5 hr after infarction
[15] = 10 mg/kg i.v. once 2 hr after infarction
[16] = 10 mg/kg i.v. once 6 hr after infarction

## CCCCC1OC(=O)c2ccccc21 (stereo not shown) [Butylphthalide]
[1]; [14]
  Brain water ratio: 81.23%
[1]; [15]
  Brain water content: 326.33 mg
  Brain water ratio: 81.25%
[1]; [16]
  Brain water content: 342.83 mg
  Brain water ratio: 82.36%
[2]; [14]
  Brain volume: 0.403 ± 0.04 mL
[2]; [15]
  Brain volume: 0.407 ± 0.02 mL
[2]; [16]
  Brain volume: 0.427 ± 0.03 mL
[3]; 24 h
  Beam-walking time: 38.91 s
[3]; 48 h
  Beam-walking time: 45.80 s
[4]; 24 h
  Grip Strength: 404.73 g
[4]; 48 h
  Grip Strength: 419.93 g
[5]; 24 h
  Rotarod test score, Time: 69.83 s
[5]; 48 h
  Rotarod test score, Time: 86.42 s
[6]
  Cerebral Infarction Volume: 22.41%
[6]; vs model
  Improvement rate of infarction: 30.84%
[7]
  Brain water content: 1282.00 mg
  Brain water ratio: 78.80%
[8]
  Brain volume: 1.597 ± 0.11 mL
[9]
  Body weight compared to model test group: No statistically significant difference
[10]; Day 0
  Beam-walking time: 23.13 s
[10]; Day 2
  Beam-walking time: 28.31 s
[10]; Day 4
  Beam-walking time: 43.23 s
[10]; Day 7
  Beam-walking time: 35.65 s
[10]; Day 14
  Beam-walking time: 16.01 s
[11]; Day 0
  Grip Strength: 504.65 g
[11]; Day 2
  Grip Strength: 565.99 g
[11]; Day 4
  Grip Strength: 520.36 g
[11]; Day 7
  Grip Strength: 523.26 g
[11]; Day 14
  Grip Strength: 585.23 g
[12]; Day 0
  Rotarod test score, Time: 124.5 s
[12]; Day 2
  Rotarod test score, Time: 126.8 s
[12]; Day 4
  Rotarod test score, Time: 122.2 s
[12]; Day 7
  Rotarod test score, Time: 130.7 s
[12]; Day 14
  Rotarod test score, Time: 157.3 s
[13]
  Cerebral Infarction Volume: 15.01%
[13]; vs model
  Improvement rate of infarction: 23.64%
